Results as given in patent publication US20100178362A1, “CHROMIUM COMPLEXES FOR IMPROVEMENT OF MEMORY AND COGNITIVE FUNCTION” (priority 2007, published 2010).
Where two headings read alike, the source gives them in different places.

Tests used:
rats = conditions: cited from earlier work
[1] = test system: spatial learning and memory; experiment: Morris Water Maze test of spatial learning and memory; assay type: in vivo, male Wistar rats; conditions: for Improvement of spatial learning and/or memory: control animals and insulin-resistant animals; for Escape latency compared to controls: treatment for twelve weeks
From the text: 8-week old, male, Wistar rats were divided into eight groups: four control groups (C) and four insulin-resistant groups (HFD). Insulin resistance was induced in by feeding the rats a high-fat diet (40% of calories as fat). The four groups in the control and insulin-resistant groups included: a no treatment group, a 14.3 mcg chromium picolinate group (CrPic), a 19.7 mcg chromium histidinate group (CrHis), and a 7.15 chromium picolinate and 9.85 chromium histidinate group (CrPic+CrHis). Four rats were assigned to each of the eight groups. Treatments were administered for twelve weeks.
Spatial learning and memory were then tested using the Morris Water Maze test. Rats were placed in a circular water tank (120 cm diameter, 50 cm height) that was partially filled with water (25° C.). Milk powder was used to render the water opaque. Each rat was acclimated to the task with two days of free-swimming in the pool with no platform. […] Distal spatial cues were provided and kept constant throughout the testing, such that the rats could use the cues to find the platform. Rats were given 60 seconds to find the platform during each trial. The escape latency was defined as the time required for the rat to find a hidden platform.
A probe trial was performed in which the hidden platform was removed from the pool, and the animal was allowed to swim for 60 seconds. Typically, a rat will swim in a quadrant of the pool where the platform was previously hidden.

memory function = experiment: California Verbal Learning Test in trial subjects with Mild Cognitive Impairment; assay type: in vivo, men and women
Experimental: (§1) A randomized, double blind, placebo-controlled trial is conducted to evaluate the efficacy of chromium picolinate in producing enhancements of neuropsychological function in men and women with Mild Cognitive Impairment. Changes in indices of glucose metabolism and in salivary cortisol levels also are measured to gather exploratory information concerning potential mechanisms by which the intervention produces its effects. The subjects participate in a 12-week protocol with major assessments of neuropsychological and biological measures at pre-treatment baseline and during the final week of the intervention. In addition, a brief interim evaluation of neurocognitive function is conducted at 6 weeks to gather information that to assess trends and acute response. Mood, as a potential covariate of the neurobehavioral outcome measures, is also assessed. Overall diet and consumption of other supplements are assessed with diet diaries at different phases of the intervention. Compliance and adverse responses are monitored throughout the period of the intervention by means of weekly telephone contacts.
California Verbal Learning Test: The California Verbal Learning Test (CVLT) is among the best designed of a number of list learning procedures used to assess memory consolidation ability. It provides data on learning rate or efficiency, interference effects, recall, and recognition memory. Reliability and validity data are adequate and well established. Our data with a middle-aged sample indicated a trend for recall and recognition memory effects on this procedure.
(§2) Chromium picolinate: The chromium supplement is provided by Nutrition21, Purchase, N.Y., a major distributor of the chromium picolinate supplement form. A single capsule 1000 mcg dose is administered to subjects receiving the chromium treatment with the morning meal each day for the duration of the intervention. Similar appearing placebo capsules are administered in a similar manner to subjects receiving the placebo treatment.

[2] = Placebo-controlled trial in Mild Cognitive Impairment: chromium to creatinine ratio; assay type: in vivo, men and women
Experimental: as §1
(§3) Chromium picolinate: The chromium supplement is provided by Nutrition21, Purchase, N.Y., a major distributor of the chromium picolinate supplement form. […]

motor speed = experiment: Trail-Making task in trial subjects with Mild Cognitive Impairment; assay type: in vivo, men and women
Experimental: as §1, §3

cerebral activation = experiment: fMRI during working memory (visual-spatial n-back) task in trial subjects with Mild Cognitive Impairment; assay type: in vivo, men and women
Experimental: as §1, §2
A neuropsychological protocol is administered and fMRI scans are obtained before and after treatments using a Varian INOVA 4 Tesla scanner. Two runs of BOLD EPI, 30 contiguous 5 mm coronal slices are acquired. Images are obtained while subjects performed the NIH visual-spatial n-back task with 0- and 1-back blocks. There are 20, 1.5 s trials per block; each block repeated 6 times. Image analyses are performed using AFNI and included co-registration, motion correction, blur, normalization, and event-related analysis. […]

HFD/STZ-treated rats = experiment: Rat model of type 2 diabetes (high-fat diet + streptozotocin): chromium, carbohydrate metabolism and serotonergic properties; assay type: in vivo, male Sprague-Dawley rats; parameters: Cortisol: unit not given here
Experimental: An animal model of type 2 diabetes was produced by feeding male Sprague-Dawley rats (n=33) with a high-fat diet (HFD, 40% Kcal from fat) for 2 weeks, then intraperitoneally administering streptozotocin (STZ, 40 mg/kg). The HFD/STZ-treated rats were then administered 80 mcg chromium picolinate/kg body weight/day for 10 weeks. Chromium picolinate was obtained from Nutrition 21, Purchase, N.Y. Untreated Sprague-Dawley (standard control diet) and HFD/STZ-treated rats not administered chromium picolinate served as controls.
Chromium picolinate administration to HFD/STZ treated rats increased brain chromium levels and improved all measurements or carbohydrate metabolism and serotonergic properties.

[3] = control rats (C), FIGS. 1A and 1C
[4] = Study 1: 1000 mcg elemental chromium daily, 12 weeks, v placebo, effect size moderate
[5] = as printed under Results - Study 2
[6] = 80 mcg chromium picolinate/kg body weight/day for 10 weeks, mean ± SD
[7] = 80 mcg/kg body weight/day for 10 weeks

[Cl][Cr]([Cl])[Cl] [chromium chloride]
Toxic effects (rats; rats, levels several thousand times the upper limit of the human ESADDI for chromium (based on body weight)): without toxic effects

chromium histidinate
Improvement of spatial learning and/or memory [1]: effective in improving spatial learning and/or memory
Escape latency compared to controls [1, 3]: significantly shorter escape latencies on day 3
Escape latency compared to controls ([1]; insulin-resistant rats (HFD), FIGS. 1B and 1D): significantly shorter escape latencies on days 3 and 5

chromium picolinate
Accuracy of memory on the California Verbal Learning Test (memory function; Study 1: 1000 mcg elemental chromium daily, 12 weeks, v placebo): No group differences
Semantic interference (free recall intrusions) (memory function; [4]): trend for reduced semantic interference
Intrusion errors on the California Verbal Learning Test (memory function; Study 2: administered outside the scanner, relative to the placebo group): reduced intrusion errors
Accuracy of memory on the California Verbal Learning Test (memory function; [5]): No group differences
Semantic interference (memory function; [5]): trend for reduced semantic interference
Chromium to creatinine ratios at treatment termination ([2]; Study 1: 1000 mcg elemental chromium daily for 12 weeks (n=11) v placebo (n=10), F=8.85, p=0.008): significantly elevated
Chromium to creatinine ratios at treatment termination ([2]; Study 2: 1000 mcg elemental chromium daily for 12 weeks (n=9) v placebo (n=4), F=8.86, p<0.0001): elevated
Improvement of spatial learning and/or memory [1]: effective in improving spatial learning and/or memory
Escape latency compared to controls [1, 3]: significantly shorter escape latencies on day 3
Motor speed on the Trail-Making task (motor speed; [4]): trend for enhanced motor speed
Motor speed (motor speed; as printed under Results - Study 2, sentence breaks off): trend for enhanced motor
fMRI activation pattern, pre- v post-intervention scans (cerebral activation; Study 1: individual subjects, increasing working memory load): increasing activation in left frontal and left parietal cortices
Performance on the working memory task (cerebral activation; Study 2: n-back task in the scanner, v placebo): not reflected in differential performance
fMRI activation relative to placebo treated subjects (cerebral activation; Study 2: right thalamic, right temporal, right posterior parietal and bilateral frontal regions, p=0.005 corrected): greater activation
Toxic effects (rats; rat, in vivo): without toxic effects
CISI (insulin sensitivity) (HFD/STZ-treated rats; [6]): 1.3 ± 0.04
Chromium - Brain (HFD/STZ-treated rats; [6]): 22.6 ± 1.2 ng/g
Cortisol (HFD/STZ-treated rats; [6]): 11.5 ± 0.4
Glucose (HFD/STZ-treated rats; [6]): 287.0 ± 2.7 mg/dL
Insulin Brain (HFD/STZ-treated rats; [6]): 8.9 ± 2.0 ng/g
Insulin Serum (HFD/STZ-treated rats; [6]): 25.9 ± 0.5 uU/mL
Melatonin (HFD/STZ-treated rats; [6]): 16.3 ± 0.2 µg/g
Serotonin Brain (HFD/STZ-treated rats; [6]): 520.3 ± 4.1 µg/g
Serotonin Serum (HFD/STZ-treated rats; [6]): 174.9 ± 2.5 mg/dL
Tryptophan Brain (HFD/STZ-treated rats; [6]): 5.5 ± 0.2 µg/g
Tryptophan Serum (HFD/STZ-treated rats; [6]): 16.1 ± 0.3 mg/dL
Insulin resistance compared to the HFD/STZ group (HFD/STZ-treated rats; [7]): reduced
Tolerability / adverse events (HFD/STZ-treated rats; [7]): well tolerated without any adverse events
